Results as given in patent US9580524B2, “Vinylcyclopropane, monomer composition, polymer, polymer composition, and article” (Dexerials Corporation, priority 2014, dated 2017).

Columns and labels:
[1] = Polymer heat resistance (thermogravimetric analyzer); format: physicochemical; details: homopolymer
Protocol: Heat resistance of the polymer used in (i) evaluation of volume change upon polymerization was evaluated using a thermogravimetric analyzer (producer: Seiko Instruments Incorporated, product name: EXSTAR6000). Furthermore, thermogravimetric change of the obtained polymer was measured to obtain a temperature at which a 10% reduction in weight was reached and the 10% weight loss temperature was taken to be the pyrolysis temperature (Td^10).

[2] = Volume change upon polymerization (monomer and polymer density by dry automatic pycnometer); format: physicochemical; details: for Volume change: ((Monomer density)−(Polymer density))/(Monomer density)×100, positive = expansion, negative = shrinkage; for Polymer density: after polymerization; for Polymer density / Monomer density: 25° C.; for Monomer density: prior to polymerization
Protocol: Volume change relative to monomer volume refers to the change in volume of the polymer relative to the volume of the monomer or monomers that are constituent components of the polymer. This volume change relative to monomer volume is obtained through the following equation by measuring the density of the monomer(s) at 25° C. prior to polymerization (monomer density) and the density of the polymer at 25° C. after polymerization (polymer density). ((Monomer density)−(Polymer density))/(Monomer density)×100(%)
First, polymerization of the obtained monomer (compound represented by structural formula (6)) was performed as follows.
A freezing ampoule (20 mL) was charged with 4.03 mg of AIBN (4 mol %), 440.2 mg (0.61 mmol) of Ad-MVCP, and 0.267 g (0.31 mL) of toluene, and the monomer was dissolved. Thereafter, freeze drying was performed three times and dissolved oxygen was removed. The freezing ampoule was immersed in an oil bath and was heated for 48 hours at 60° C. to polymerize the monomer. After polymerization, the freezing ampoule was cooled by liquid nitrogen to quench radicals. Next, 50 mL of toluene was added to the freezing ampoule in order to dissolve undissolved components other than the polymer and suction filtration was then performed. Polymer filtered onto filter paper as a result was washed with toluene and acetone, was vacuum dried for 48 hours at 100° C., and was collected as a white solid polymer. The collected polymer was used as an evaluation sample.
The volume change upon polymerization was calculated using the following equation by measuring the monomer density and polymer density of each sample prepared by the procedure described above using a dry automatic pycnometer (AccuPyc II 1340 produced by Shimadzu Corporation). ((Monomer density)−(Polymer density))/(Monomer density)×100(%)
A positive calculated value indicates volume expansion whereas a negative calculated value indicates volume shrinkage.
Note that in Comparative Example 3, polymerization of the monomer was performed by bulk polymerization based on the aforementioned document. A freezing ampoule (20 mL) was charged with 15.8 mg (0.096 mmol) of AIBN and 1.000 g (2.41 mmol) of Me-MVCP, and the monomer was dissolved. Thereafter, freeze drying was performed three times and dissolved oxygen was removed. The freezing ampoule was immersed in an oil bath and was heated for 48 hours at 60° C. to polymerize the monomer. After polymerization, the freezing ampoule was cooled by liquid nitrogen to quench radicals. Next, 50 mL of toluene was added to the freezing ampoule in order to dissolve undissolved components other than the polymer and suction filtration was then performed. Polymer filtered onto filter paper as a result was sufficiently washed with toluene and acetone, was vacuum dried for 48 hours while heating at 100° C., and was collected as a white solid polymer. The collected polymer was used as an evaluation sample.
Note that in Example 2, 0.159 g (0.479 mmol) of DCP, 0.341 g (0.479 mmol) of Ad-MVCP, and 0.2 mL of toluene (dehydrated) were added into an ampoule with a stirrer, were heated to 70° C., and were homogenized by stirring. After performing cooling to room temperature, a dilute solution of AIBN (6.3 mg (0.038 mmol) of AIBN dissolved in 0.28 mL of toluene (dehydrated)) was added to the ampoule. The ampoule was sealed using a gas burner after performing freeze degassing of the ampoule. The ampoule was immersed in an oil bath and a reaction was carried out for 48 hours at 60° C. After the reaction, the ampoule was immersed in liquid nitrogen and a polymer was collected. The resultant polymer was sufficiently washed with toluene and acetone and was vacuum dried for 48 hours while heating at 100° C., and a white solid polymer was collected. The collected polymer was used as an evaluation sample.
Ad-MVCP in an amount of 0.153 g (0.215 mmol) and DCP in an amount of 0.072 g (0.216 mmol) were dissolved and homogenized in 0.3 mL of acetone. […]

[3] = Polymer dynamic viscoelasticity (DMA, tension mode) of the cured product; format: physicochemical; details: for Tg (glass-transition temperature): maximum of tan δ, frequency 11.0 Hz
Protocol: The obtained monomer was homogenized with 0.5 parts by mass of PERHEXA HC (producer: NOF Corporation) and 0.2 mL of acetone added thereto, was subsequently poured into a 10 mm×40 mm×0.5 mm silicone rubber sheet mold prepared on an aluminum plate, and was transferred into a vacuum oven. Acetone solvent was first vaporized while maintaining the temperature at room temperature and the pressure at 20 cmHg to 40 cmHg, and thereafter the pressure was restored to normal pressure and curing was performed for 5 hours at 140° C. to prepare a cured product. The cured product that was prepared was evaluated by measurement as described below using a tension mode of a dynamic mechanical analyzer (DMA).
The cured product was set in the dynamic mechanical analyzer (producer: TA Instruments, product name: RSA3) and the device was used to measure the storage modulus (E′) in a temperature range of from 30° C. to 300° C. with a heating rate of 10.0° C./min. Furthermore, the temperature corresponding to a maximum value of tan δ (loss modulus/storage modulus) obtained under a measurement condition of a frequency of 11.0 Hz was taken to be the glass-transition temperature (Tg).

[4] = Monomer solubility in various solvents; format: physicochemical; details: 40 mg monomer in 1.0 mL
Protocol: The solubility of 40 mg of the obtained monomer in 1.0 mL of various solvents (methyl ethyl ketone (MEK), acetone, propylene glycol monomethyl ether acetate (PGMEA), and cyclohexanone) was evaluated.

[5] = background statement; cited from earlier work

Row | Molecule | Td^10 (pyrolysis temperature, 10% weight loss temperature) [1] [°C] | Volume change [2] | Polymer density [2] [g/mL] | Monomer density [2] [g/mL] | E′ (storage modulus) ([3]; 50° C., 5 hours at 140° C.) | E′ (storage modulus) ([3]; 120° C.) | E′ (storage modulus) ([3]; 140° C.) | E′ (storage modulus) ([3]; 160° C.) | Tg (glass-transition temperature) [3] [°C] | Solubility ([4]; Acetone) | Solubility ([4]; Cyclohexanone) | Solubility ([4]; MEK) | Solubility ([4]; PGMEA) | solubility in solvents such as acetone [5]
1 | C=CC1CC1(C(=O)OC12CC3CC(CC(C3)C1)C2)C(=O)OC12CC3CC(C1)CC(OC(=O)C1(C(=O)OC45CC6CC(CC(C6)C4)C5)CC1C=C)(C3)C2 (stereo not shown) [Example 1, 1,3-bis[(1-adamantyloxycarbonyl-2-vinylcyclopropane-1-yl)carbonyloxy]adamantane] | 399 | +6.1% | 1.198 | 1.275 | 1.10 × 10^9 Pa | 7.40 × 10^8 Pa | 6.60 × 10^8 Pa | 7.00 × 10^8 Pa | 235 | Excellent | Excellent | Excellent | Excellent | 
2 | tricyclodecane dimethanol dimethacrylate [Comparative Example 1] |  | −8.5% | 1.194 | 1.101 | 1.70 × 10^9 Pa | 9.60 × 10^8 Pa | 8.00 × 10^8 Pa | 6.60 × 10^8 Pa | >271.1 |  |  |  |  | 
3 | C=CC1CC1(C(=O)OC12CC3CC(CC(C3)C1)C2)C(=O)OC12CC3CC(CC(C3)C1)C2 (stereo not shown) [Comparative Example 2, 1,1-bis[(1-adamantyloxy)carbonyl]-2-vinylcyclopropane] | 361 | +4.3% | 1.127 | 1.178 |  |  |  |  | 23 | Poor | Mediocre | Poor | Poor | poor
